Data on eleven molecules can be found in patent publication US20240360082A1, “SUBSTITUTED PYRIDONE COMPOUNDS USEFUL TO TREAT ORTH[…]” (priority 2021, published 2024).

As usually defined, the IC50 is the concentration at which inhibition is half-maximal.

The target of this test is influenza A virus minigenome (PB2, PB1, PA, NP proteins) (UniProt P04665). The format is cell-based. The settings on record: read-out: RNP_ Hubei B IC50.
influenza A virus minigenome (PB2, PB1, PA, NP proteins), sequence (P04665 whole entry): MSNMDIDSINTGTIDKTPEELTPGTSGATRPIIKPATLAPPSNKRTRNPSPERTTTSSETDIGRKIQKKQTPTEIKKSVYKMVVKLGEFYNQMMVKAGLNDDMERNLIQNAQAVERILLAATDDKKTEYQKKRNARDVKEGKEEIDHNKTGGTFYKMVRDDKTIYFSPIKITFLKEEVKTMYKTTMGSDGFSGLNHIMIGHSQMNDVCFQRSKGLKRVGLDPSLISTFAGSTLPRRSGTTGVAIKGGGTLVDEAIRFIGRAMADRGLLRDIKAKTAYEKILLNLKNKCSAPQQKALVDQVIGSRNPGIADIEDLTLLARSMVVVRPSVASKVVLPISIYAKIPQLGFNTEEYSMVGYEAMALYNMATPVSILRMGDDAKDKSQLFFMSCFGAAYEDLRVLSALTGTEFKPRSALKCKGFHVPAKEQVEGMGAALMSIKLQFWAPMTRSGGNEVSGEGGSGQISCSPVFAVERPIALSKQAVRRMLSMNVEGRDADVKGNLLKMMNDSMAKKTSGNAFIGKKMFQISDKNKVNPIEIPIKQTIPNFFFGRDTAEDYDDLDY
As to `NC(=O)c1cc(-c2ccc(OCC3COCC4(CC4)O3)cc2)c(C(F)(F)F)[nH]c1=O` (single isomer, unassigned) [Example 335, (4-(4,7-dioxaspiro[2.5]octan-5-ylmethoxy)phenyl)-2-oxo-6-(trifluoromethyl)-1,2-dihydropyridine-3-carboxamide], the IC50 lay within 5 to 10 µM.

`NC(=O)c1cc(-c2ccc(OCC3COCC(F)(F)C3)cc2)c(C(F)(F)F)[nH]c1=O` (single isomer, unassigned) [Example 336, 5-(4-((5,5-difluorotetrahydro-2H-pyran-3-yl)methoxy)phenyl)-2-oxo-6-(trifluoromethyl)-1,2-dihydropyridine-3-carboxamide]: the IC50 is 5 to 10 µM.

For the molecule `NC(=O)c1cc(-c2ccc(OCC3COCC(F)(F)C3)cc2)c(C(F)(F)F)[nH]c1=O` (single isomer, unassigned) [Example 337, 5-(4-((5,5-difluorotetrahydro-2H-pyran-3-yl)methoxy)phenyl)-2-oxo-6-(trifluoromethyl)-1,2-dihydropyridine-3-carboxamide], the half-maximal inhibitory concentration (IC50) was 5 to 10 µM.

Turning to `NC(=O)c1cc(-c2ccc(OCC3COC(CF)CO3)cc2)c(C(F)(F)F)[nH]c1=O` (single isomer, unassigned) [Example 340, 5-(4-((5-(fluoromethyl)-1,4-dioxan-2-yl)methoxy)phenyl)-2-oxo-6-(trifluoromethyl)-1,2-dihydropyridine-3-carboxamide], the IC50 is 5 to 10 µM.

On to `NC(=O)c1cc(-c2ccc(OCC3COC(CF)CO3)cc2)c(C(F)(F)F)[nH]c1=O` (single isomer, unassigned) [Example 341, 5-(4-((5-(fluoromethyl)-1,4-dioxan-2-yl)methoxy)phenyl)-2-oxo-6-(trifluoromethyl)-1,2-dihydropyridine-3-carboxamide], for which the IC50 lay within 5 to 10 µM.

Turning to `NC(=O)c1cc(-c2ccc(OCC3COC(CF)CO3)cc2)c(C(F)(F)F)[nH]c1=O` (single isomer, unassigned) [Example 342, 5-(4-((5-(fluoromethyl)-1,4-dioxan-2-yl)methoxy)phenyl)-2-oxo-6-(trifluoromethyl)-1,2-dihydropyridine-3-carboxamide], the IC50 is 5 to 10 µM.

Turning to `NC(=O)c1cc(-c2ccc(OCC3COC(CF)CO3)cc2)c(C(F)(F)F)[nH]c1=O` (single isomer, unassigned) [Example 343, 5-(4-((5-(fluoromethyl)-1,4-dioxan-2-yl)methoxy)phenyl)-2-oxo-6-(trifluoromethyl)-1,2-dihydropyridine-3-carboxamide], the IC50 is 5 to 10 µM.

For the molecule `NC(=O)c1cc(-c2ccc(OCC3COC(C(F)F)CO3)cc2)c(C(F)(F)F)[nH]c1=O` (single isomer, unassigned) [Example 344, 5-(4-((5-(difluoromethyl)-1,4-dioxan-2-yl)methoxy)phenyl)-2-oxo-6-(trifluoromethyl)-1,2-dihydropyridine-3-carboxamide], the IC50 fell in the range of 5 to 10 µM.

On to `NC(=O)c1cc(-c2ccc(OCC3COC(C(F)F)CO3)cc2)c(C(F)(F)F)[nH]c1=O` (single isomer, unassigned) [Example 345, 5-(4-((5-(difluoromethyl)-1,4-dioxan-2-yl)methoxy)phenyl)-2-oxo-6-(trifluoromethyl)-1,2-dihydropyridine-3-carboxamide], for which the IC50 lay within 5 to 10 µM.

Regarding `NC(=O)c1cc(-c2ccc(OCC3COC(C(F)F)CO3)cc2)c(C(F)(F)F)[nH]c1=O` (single isomer, unassigned) [Example 346, 5-(4-((5-(difluoromethyl)-1,4-dioxan-2-yl)methoxy)phenyl)-2-oxo-6-(trifluoromethyl)-1,2-dihydropyridine-3-carboxamide], the IC50 lay within 5 to 10 µM.

With `NC(=O)c1cc(-c2ccc(OCC3COC(C(F)F)CO3)cc2)c(C(F)(F)F)[nH]c1=O` (single isomer, unassigned) [Example 347, 5-(4-((5-(difluoromethyl)-1,4-dioxan-2-yl)methoxy)phenyl)-2-oxo-6-(trifluoromethyl)-1,2-dihydropyridine-3-carboxamide], the IC50 lay in the range of 5 to 10 µM.
